This is an account of results in patent US6630125B2, “18F-labeled choline analogs” (priority 2000, dated 2003).

Series [1] deals with PC-3 human prostate cancer cells. Put plainly: Accumulation of radiotracers by cultured PC-3 cells. The format is cell-based. As to conditions: for Uptake by PC-3 cancer cells, HC-3: 5 mM hemicholinium-3; for accumulation by cultured PC-3 cells compared with other tracers: control conditions; for Uptake by PC-3 cancer cells, Control: 2 hr incubation. How it is done: The incubation media utilized for the experiments differed according to the cancer cell type (Table 1). On the day of the study, the medium was refreshed using a volume of 1 ml in each well. Cells were incubated in control conditions or with the addition of metabolic and growth factor receptor inhibitors to test the sensitivity of uptake of the radiotracers to specific inhibitions. […] Following a 30-min incubation period, the radiotracers (e.g., FDG or FCH) were added (˜2 µCi/well) and the cells were incubated for 2 hr. The cells were washed three times with phosphate buffered saline solution, released from the plates by briefly incubating with 0.05% trypsin in DMEM, transferred to test tubes, and counted for F-18 radioactivity in a gamma counter. The amount of radioactivity in the cells was normalized by the dose administered to each well.
The present work studies the structure-activity relationships for purposes of optimization of the molecule for imaging prostate cancer. […] A number of structural analogs of choline were labeled as N-[^18F]fluoromethyl derivatives via the intermediate [^18F]fluorobromomethane (see Table 3). Uptake of the radiotracers was assessed in cultured PC-3 human prostate cancer cells and in a murine PC-3 xenograft model.

For series [2], the system named is mice with PC-3 xenografts. As to conditions: for tumor uptake: PC-3 xenograft. How it is done:
Body weight and tumor volume were measured weekly and tumor volume (mm3) was calculated using the formula S2×L/2, where S and L represent the small and large diameters of the tumor, respectively.
A prescribed duration of time was allowed before procurement of heart, liver, lung, blood, kidney, bone (femur), brain (whole), prostate gland, tumor, bladder, and skeletal muscle. The tissues were weighed, and counted for ^18F in a gamma counter, then dissolved in Solvable (Dupont, Boston Mass.) and counted for ^14C in a liquid scintillation counter. For the bladder, the percentage of the injected dose in the urine was determined. For all other tissues, radiotracer uptake was calculated as: […]

The test system of series [3] is patients with prostate cancer. The series is described as follows: PET imaging in patients with prostate cancer. As to conditions: Example 11 patient, metastatic prostate cancer. How it is done: The distribution of FCH in PET imaging studies was evaluated in 14 patients with prostate cancer, 14 patients with breast cancer, and 5 patients with brain tumors. Imaging was performed using the Advance PET scanner (GE Medical Systems, Milwaukee, Wis.). […] In prostate cancer patients, a transmission scan of the pelvic region was obtained before administration of radiotracer. FCH (2.5-5 mCi) was administered intravenously, and dynamic imaging of the pelvis region was commenced for 20-30 min. During image reconstruction, the emission data in the pelvic region were corrected for photon attenuation using the transmission scan. Immediately following the dynamic scan, a whole-body emission scan was performed without transmission scanning for attenuation correction. The images were reconstructed using an Ordered Subset Expectation Maximum (OS-EM) algorithm. Regions-of-interest were drawn manually on the attenuation corrected images for evaluation of FCH kinetics in tissues. Standardized uptake values of FCH uptake in tissues were calculated using the attenuation-corrected images according to the equation: [formula]
Patient 2: Transmission and FCH emission scans of a person with hormone naive clinical stage T2 prostate cancer were commenced over the lower pelvis.
The same patient was scanned with FDG within the same week (FIG. 8).
Patient 4: A person with a history of clinical stage T3b prostate cancer treated by radical retropubic prostatectomy was diagnosed with metastatic disease by bone scan. FCH-PET imaging was performed before and after initiating androgen deprivation therapy. In the first study, whole-body emission scanning was started 5 min after injection, beginning at the pelvic region in order to image the pelvis and prostatic bed before arrival of urinary radioactivity. […] The patient was rescanned 2 weeks after initiating androgen deprivation therapy.
Patient 5: A person was initially diagnosed five years prior with locally advanced clinical stage T3NOMO prostate cancer and underwent radical prostatectomy followed by external beam radiation to the prostate bed. […] The patient was then treated with Zolex and Casodex.

The target of series [4] is T1, yeast choline kinase (Saccharomyces cerevisiae, UniProt P20485).
T1 sequence (P20485 1-582): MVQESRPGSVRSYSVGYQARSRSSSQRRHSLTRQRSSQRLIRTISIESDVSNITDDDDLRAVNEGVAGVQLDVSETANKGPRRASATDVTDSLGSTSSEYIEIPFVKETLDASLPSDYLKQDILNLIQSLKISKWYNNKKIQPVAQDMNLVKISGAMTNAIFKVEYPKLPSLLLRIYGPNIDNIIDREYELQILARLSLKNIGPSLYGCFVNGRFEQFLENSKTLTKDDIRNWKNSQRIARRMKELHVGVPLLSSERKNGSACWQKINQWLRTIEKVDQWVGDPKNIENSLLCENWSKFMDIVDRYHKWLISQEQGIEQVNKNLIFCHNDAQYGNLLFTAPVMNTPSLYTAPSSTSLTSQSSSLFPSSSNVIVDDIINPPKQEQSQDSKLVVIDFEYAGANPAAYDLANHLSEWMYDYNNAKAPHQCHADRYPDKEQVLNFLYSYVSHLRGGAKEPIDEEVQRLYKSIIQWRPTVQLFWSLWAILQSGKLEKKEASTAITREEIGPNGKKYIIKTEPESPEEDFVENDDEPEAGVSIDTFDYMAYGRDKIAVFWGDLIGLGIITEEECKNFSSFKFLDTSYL
Put plainly: In vitro phosphorylation by yeast choline kinase. The class given is biochemical. The settings on record: 1 μM choline; for In vitro phosphorylation: 25 mU/ml yeast choline kinase, 23° C., 10 min, n = 5. As for the experimental part:
The test tube was gently agitated throughout the incubation period. The reaction was stopped by placing the tube in a boiling water bath for 2 min. To serve as controls, some samples were placed directly in the boiling water bath after addition of all substrates. […] The percentage of radioactivity converted to the phosphorylated form was calculated.

[5] abbreviates: inhibitor HC-3 (hemicholinium-3, 5 mM).

Structures are written as SMILES. Where two headings read alike, the source gives them in different places.

As to `C=CC[N+](C)(C[18F])CCO` (stereo not shown) [Allyl], the “Uptake by PC-3 cells” value in series [1] (setting [5]) was 0.11 ± 0.01 % dose/2 hr/10^5 cells plated; in series [1] (inhibitor none), 4.45 ± 0.46 % dose/2 hr/10^5 cells plated.
For `C[N+](C)(C[18F])CCCCO` [Butanol], the “Uptake by PC-3 cells” value in series [1] is on record as 0.140 ± 0.042 % dose/2 hr/10^5 cells plated.
In the case of `CCCC[N+](C)(C[18F])CCO` (stereo not shown) [Butyl], the “Uptake by PC-3 cells” value in series [1] (inhibitor none) is 0.153 ± 0.021 % dose/2 hr/10^5 cells plated.
With `C[N+](C[18F])(CCO)CCO` [Diethanol], the “Uptake by PC-3 cells” value in series [1] (inhibitor none) is 0.462 ± 0.083 % dose/2 hr/10^5 cells plated.
Take `CC[N+](CC)(C[18F])CCO` [Diethyl]: the “Uptake by PC-3 cells” value in series [1] (inhibitor none) is recorded as 0.503 ± 0.091 % dose/2 hr/10^5 cells plated.
`CC[N+](C)(C[18F])CCCO` (stereo not shown) [Ethyl-Prop.]: the “Uptake by PC-3 cells” value in series [1] (inhibitor none) is 0.285 ± 0.023 % dose/2 hr/10^5 cells plated.
For `[2H]C([2H])(O)C[N+](C)(C)C[18F]` [FDC], in series [2] (60 min after injection), the “Tumor:muscle ratio” value is recorded as “highest” and the “tumor:blood ratio” value is reported as “highest”. Further, the “Uptake by PC-3 cells” value in series [1] (inhibitor none) was 2.410 ± 0.144 % dose/2 hr/10^5 cells plated. For the same compound, the “SUV of osseous lesion (pubic ramus)” value in series [3] is 11.7.
`[2H]C([2H])(O)C[N+](C)(CC)C[18F]` (stereo not shown) [FEDC]: the “Uptake by PC-3 cells” value in series [1] (inhibitor none) was 0.720 ± 0.065 % dose/2 hr/10^5 cells plated.
With `CC[N+](C)(C[18F])CCO` (stereo not shown) [FEtC, [^18F]fluoromethylethylcholine], the tumor uptake in series [2] is ~0.07 % dose kg/g. In series [4], the “phosphorylation rate compared with CH” value is “equivalent to CH” and the In vitro phosphorylation is 55.2 ± 6.6%. In series [1], the “uptake in cultured PC-3 cells” value is ~2 %/hr/100,000 cells plated; the “Uptake by PC-3 cancer cells, HC-3” value is 0.12 ± 0.02 % dose/2 hr/105 cells plated; the “accumulation by cultured PC-3 cells compared with other tracers” value is “higher than HARA-1 (p<0.05), but lower than FCH”; the “Uptake by PC-3 cancer cells, Control” value is reported as 0.74 ± 0.04 % dose/2 hr/105 cells plated. In addition, the “Uptake by PC-3 cells” value in series [1] (setting [5]) is 0.122 ± 0.016 % dose/2 hr/10^5 cells plated. Besides, the “Uptake by PC-3 cells” value in series [1] (inhibitor none) is given as 0.741 ± 0.041 % dose/2 hr/10^5 cells plated.
Take `C[N+](C)(C[18F])CCCO` [FHC, [^18F]fluorohomocholine]: the tumor uptake in series [2] was ~0.07 % dose kg/g. The “uptake in cultured PC-3 cells” value in series [1] is given as ~2 %/hr/100,000 cells plated. Further, in series [1] (inhibitor none), the “Uptake by PC-3 cells” value is listed as 1.635 ± 0.306 % dose/2 hr/10^5 cells plated.
`C[N+](C)(CCO)CCC[18F]` [FPC, [^18F]fluoropropylcholine]: in series [4], the “phosphorylation rate, less than for FCH” value is given as ~60% and the In vitro phosphorylation worked out at 22.1 ± 3.1 %. In addition, in series [1], the “Uptake by PC-3 cancer cells, HC-3” value is 0.76 ± 0.20 % dose/2 hr/105 cells plated; the “accumulation by cultured PC-3 cells compared with other tracers” value is on record as “not significantly different from that of FCH”; the “Uptake by PC-3 cancer cells, Control” value is given as 1.29 ± 0.28 % dose/2 hr/105 cells plated. Besides, the “decrease in uptake by PC-3 cells with hemicholinium-3 (HC-3)” value in series [1] (HC-3 versus control) is on record as 41%.
For `C#CC[N+](C)(C[18F])CCO` (stereo not shown) [FPP], in series [1] (inhibitor none), the “Uptake by PC-3 cells” value is reported as 7.90 ± 0.53 % dose/2 hr/10^5 cells plated.
Turning to `CCC[N+](C)(C[18F])CCO` (stereo not shown) [FPrC], the tumor uptake in series [2] is reported as ~0.07 % dose kg/g. In addition, the “uptake in cultured PC-3 cells” value in series [1] is ~2 %/hr/100,000 cells plated. Also, the “Uptake by PC-3 cells” value in series [1] (setting [5]) is listed as 0.062 ± 0.001 % dose/2 hr/10^5 cells plated; in series [1] (inhibitor none), 1.877 ± 0.115 % dose/2 hr/10^5 cells plated.
Consider `CC(C)C[N+](C)(C[18F])CCO` (stereo not shown) [Isobutyl], for which the “Uptake by PC-3 cells” value in series [1] (inhibitor none) is listed as 2.74 ± 0.09 % dose/2 hr/10^5 cells plated.
Consider `CCCCC[N+](C)(C[18F])CCO` (stereo not shown) [Pentyl], for which the “Uptake by PC-3 cells” value in series [1] (inhibitor none) is on record as 0.073 ± 0.007 % dose/2 hr/10^5 cells plated.
Take `CCC[N+](C)(C[18F])CCCO` (stereo not shown) [Propyl-prop.]: the “Uptake by PC-3 cells” value in series [1] (inhibitor none) is 0.234 ± 0.050 % dose/2 hr/10^5 cells plated.
Turning to `CCC(C)[N+](C)(C[18F])CCO` (stereo not shown) [Sec-butyl], the “Uptake by PC-3 cells” value in series [1] (inhibitor none) is on record as 0.28 ± 0.01 % dose/2 hr/10^5 cells plated.
`CC(O)C[N+](C)(C)C[18F]` (stereo not shown) [Tracer 1-methyl]: the “Uptake by PC-3 cells” value in series [1] (inhibitor none) is reported as 0.202 ± 0.021 % dose/2 hr/10^5 cells plated.
For the compound `CC(CO)[N+](C)(C)C[18F]` (stereo not shown) [Tracer 2-methyl], in series [1] (inhibitor none), the “Uptake by PC-3 cells” value is 0.182 ± 0.016 % dose/2 hr/10^5 cells plated.
Consider `C[N+](C[18F])(CCO)Cc1ccccc1` (stereo not shown) [benzyl], for which the “Uptake by PC-3 cells” value in series [1] (inhibitor none) was 0.202 ± 0.009 % dose/2 hr/10^5 cells plated.
For `OCC[N+]1(C[18F])CCCC1` [cyclic 5N], the “Uptake by PC-3 cells” value in series [1] (inhibitor none) is given as 0.355 ± 0.028 % dose/2 hr/10^5 cells plated.
Regarding `OCC[N+]1(C[18F])CCOCC1` [cyclic 6NO], in series [1] (inhibitor none), the “Uptake by PC-3 cells” value is 0.399 ± 0.014 % dose/2 hr/10^5 cells plated.
For `OCC[N+]1(C[18F])CCCCC1` [cyclic 6N], in series [1] (inhibitor none), the “Uptake by PC-3 cells” value is 0.144 ± 0.014 % dose/2 hr/10^5 cells plated.
In the case of `C[N+]1(C[18F])CCCC(O)C1` (stereo not shown) [cyclic N—OH], in series [1] (inhibitor none), the “Uptake by PC-3 cells” value is 0.077 ± 0.011 % dose/2 hr/10^5 cells plated.
With `[2H]C([2H])(O)CC[N+](C)(C)C[18F]` [propanol - D], the “Uptake by PC-3 cells” value in series [1] is given as 0.763 ± 0.065 % dose/2 hr/10^5 cells plated.
On to `[2H]C([2H])(O)C[N+](C)(C[18F])CCC` (stereo not shown) [propyl - D], for which, in series [1] (inhibitor none), the “Uptake by PC-3 cells” value was 1.864 ± 0.307 % dose/2 hr/10^5 cells plated.
In the case of `OCC[N+](C[18F])(CCO)CCO` [triethanol], in series [1] (inhibitor none), the “Uptake by PC-3 cells” value is reported as 0.170 ± 0.045 % dose/2 hr/10^5 cells plated.
